According to patent US20240099298A1, “BIOINSECTICIDAL COMPOSITIONS CONTAINING MONOTERPENES AND METHODS OF USE THEREOF” (priority 2017, published 2024):
Values after ≈ are worked out from the molar mass of the structure shown. Where a name gives a salt, the structure may show the parent alone. Read-outs that look alike come from different tables or passages of the source. Marks after values point to notes of the source that are not given here.

What was measured:
[1] = system: Megalurothrips usitatus (flower Thrips); settings: for activity against flower Thrips in preliminary screening: adult M. usitatus, 24 hours of fumigation in 1-L flasks
[2] = system: T. castaneum (red flour beetle); test: Median lethal time (LT50) test, red flour beetle; assay type: in vivo, Tribolium castaneum
From the text: (§1) All treatments and controls were in triplicate.
(§2) Toxicity of Monoterpenes as Fumigants. […] Therefore, to determine how fast the monoterpenes act as fumigants, it was necessary to determine their LT50 values for the target organisms.

Aedes aegypti (mosquito) = test: Median knockdown concentration (KC50) test, mosquito; assay type: in vivo
From the text: as §1
(§3) Knockdown Activity of Monoterpenes.

[3] = system: H. picinus (Nitidulid beetle); test: Median lethal time (LT50) test, Nitidulid beetle; assay type: in vivo, Haptoncus picinus
From the text: as §1, §2

[4] = system: A. japonicus (parasitic wasp); test: Median lethal time (LT50) test, parasitic wasp (natural enemy); settings: non-target parasitic wasp
Method: (§4) Insect Egg Parasitic Wasp (Natural Enemy). […] Both species were purchased from a commercial source. One- to two-day-old adults (after eclosion) were used for fumigation tests.
Median Lethal Time (LT50) and Median Knockdown Concentration (KC50) Tests. Five species of adult insects or natural enemies were tested for LT50 values including melon fly (B. cucuribitae), red flour beetle (T. castaneum), Nitidulidae beetle (H. picinus), parasitic wasp (A. japonicus) and housefly (M. domestica). For each treatment and control, 20 insects at the developmental stages described above were placed individually without food in a 1-L wide-mouth glass bottle (height 19.5 cm, bottom diameter 10.5 cm, mouth i.d. 5.5 cm) containing pieces of tissue paper. […] Five different concentrations of the test chemicals were placed on pieces of cellulose-based qualitative filter paper. Each of the filter papers was placed in a bottle to have 5 appropriate concentrations in serial dilutions. DDVP was the positive control, and no chemical treatments were the negative control. All treatments and controls were in triplicate. Mortality was observed periodically in a 10-30 minute interval for 2 days or until all insects died. The death was defined as no movement when the insects were touched.

[5] = system: B. cucuribitae (melon fly); test: Median lethal time (LT50) test, melon fly; assay type: in vivo, Bactrocera cucuribitae
From the text: as §1, §2

[6] = system: Musca domestica (housefly); test: Median knockdown concentration (KC50) test, housefly; assay type: in vivo; settings: for KC50 (fiducial limits): Musca domestica; for time within which the insects responded: houseflies
From the text: as §1, §3

M. domestica (housefly) = test: Median lethal time (LT50) test, housefly; assay type: in vivo, Musca domestica
From the text: as §1, §2

[7] = T 25 °C; cited from earlier work
[8] = system: Megalurothrips usitatus (Bagrall) (thrips); test: Median lethal concentration fumigation test, thrips; settings: adult thrips, exposed one hour, mortality observed in 24 hours
From the text: (§5) Median Lethal Concentration Tests. […] The species tested included Thrips (M. usitatus), spider mite (T. cinnabarinus), melon fly (B. cucuribitae), cockroach (B. lateralis), housefly (M. domestica), mosquito (A. aegypti), parasitic wasp (T. chilonis) and fruit fly (Drosophila melanogaster). After being exposed to the test chemicals for one hour, adult Thrips, spider mites, and roaches were transferred to another flask. In addition to fresh water, adult Thrips, spider mites, and roaches were then respectively fed with cowpea, fresh blade of eggplant, and peanut oil via filter. […] Mortality of melon fly was observed after three hours of exposure.

[9] = system: Blatta lateralis (Walker) (cockroach)
From the text: as §5

[10] = system: Aedes aegypti (Linnaeus) (mosquito)
From the text: as §5

[11] = system: Musca domestica (Linnaeus) (housefly)
From the text: as §5

[12] = system: Bactrocera cucuribitae (Coquillett) (melon fly)
From the text: as §5

[13] = system: Tetranychus cinnabarinus (Boisduval) (spider mites)
From the text: as §5

[14] = system: T. chilonis (parasitic wasp); settings: non-target parasitic wasp, mortality after 15 minutes of exposure
From the text: as §4, §5

adult T. palmi = settings: cited from earlier work
[15] = cockroach second instar nymphs, exposed one hour
[16] = adult mosquito, exposed 30 minutes, mortality in 24 hours
[17] = adult housefly, exposed one hour, mortality in 24 hours

In the case of `CCOC=O` [ethyl formate, reference compound], the LC50 ([1]; flower Thrips, positive fumigant control) is reported as “greater than 9.2 μg/cm^3”.
In the case of `C/C=C/c1ccc(OC)cc1` [trans-Anethole], the “LT50 (fiducial limits)” value [2] is reported as 7.97 h, the “KC50 (fiducial limits)” value (Aedes aegypti (mosquito); 10 Minutes) is reported as >8.1 µg/mL and the “KC50 (fiducial limits)” value (Aedes aegypti (mosquito); 20 Minutes) is reported as 4.84 µg/mL. The “KC50 (fiducial limits)” value (Aedes aegypti (mosquito); 30 Minutes) was 4.05 µg/mL, the “LT50 (fiducial limits)” value [3] was 1.07 h and the “LT50 (fiducial limits) against A. japonicus” value [4] was 0.933 (0.73-1.11) hour. The “activity against flower Thrips in preliminary screening” value (“activity against flower Thrips” below) [1] was “exhibit insecticidal activity”, the “LT50 (fiducial limits)” value [5] was 2.28 h and the “KC50 (fiducial limits)” value ([6]; 30 Minutes) was >243 µg/mL. The “time within which the insects responded” value [6] was ≤ 30 min and the “LT50 (fiducial limits)” value (M. domestica (housefly)) was 2.01 h.
In the case of `C=CC(=C)CCC=C(C)C` [Myrcene], the “Vp (Pa)/T (° C.)” value [7] is listed as 278.64/25 Pa and the “activity against flower Thrips” value [1] is listed as “not active”.
In the case of `C=CCc1ccc(OC)cc1` [Estragole], the “LT50 (fiducial limits)” value [2] is reported as 8.23 h, the “KC50 (fiducial limits)” value (Aedes aegypti (mosquito); 10 Minutes) is reported as >8.1 µg/mL and the “KC50 (fiducial limits)” value (Aedes aegypti (mosquito); 20 Minutes) is reported as 2.32 µg/mL. The “KC50 (fiducial limits)” value (Aedes aegypti (mosquito); 30 Minutes) was >8.1 µg/mL, the “LT50 (fiducial limits)” value [3] was 0.60 h and the “LT50 (fiducial limits) against A. japonicus” value [4] was 1.19 (1.02-1.37) hour. For the same molecule, the “LC50 (fiducial limits)” value [8] was 0.24 µg/mL (≈ 1.62 µM), the “LC90 (fiducial limits)” value [8] was 1.29 µg/mL (≈ 8.7 µM) and the “LC50 (fiducial limits)” value ([8]; listed as estragole) was 0.241 µg/mL (≈ 1.63 µM). The “activity against flower Thrips” value [1] was “exhibit insecticidal activity”, the “LT50 (fiducial limits)” value [5] was 1.69 h and the “KC50 (fiducial limits)” value ([6]; 20 Minutes) was >502 µg/mL. The “KC50 (fiducial limits)” value ([6]; 30 Minutes) was >243 µg/mL, the “LT50 (fiducial limits)” value (M. domestica (housefly)) was 1.04 h and the “LC90 (fiducial limits)” value [9, 15] was 15.3 µg/mL (≈ 103 µM). The “LC50 (fiducial limits)” value ([9]; in vivo) was 24.1 µg/mL (≈ 163 µM), the “LC90 (fiducial limits)” value [10, 16] was 0.91 µg/mL (≈ 6.14 µM) and the “LC50 (fiducial limits)” value ([10]; in vivo) was 0.25 µg/mL (≈ 1.69 µM). The “LC90 (fiducial limits)” value [11, 17] was 15.3 µg/mL (≈ 103 µM), the “LC50 (fiducial limits)” value ([11]; in vivo) was 5.89 µg/mL (≈ 39.7 µM) and the “LC50 (fiducial limits)” value ([12]; in vivo) was 483 µg/mL (≈ 3260 µM). The “LC90 (fiducial limits)” value ([12]; melon fly) was 953 µg/mL (≈ 6430 µM), the “LC50 (fiducial limits)” value ([13]; in vivo) was 3.28 µg/mL (≈ 22.1 µM) and the “LC90 (fiducial limits)” value ([13]; spider mites, exposed one hour) was 21.0 µg/mL (≈ 142 µM). For the same molecule, the “LC50 (fiducial limits) against T. chilonis” value [14] was 1.64 µg/mL (≈ 11.1 µM) and the “LC90 (fiducial limits) against T. chilonis” value [14] was 34.9 µg/mL (≈ 235 µM).
With `Cc1ccc(C(C)C)cc1O` [Carvacrol] the “LT50 (fiducial limits)” value [2] was 9.95 h, the “KC50 (fiducial limits)” value (Aedes aegypti (mosquito); 10 Minutes) was >243 µg/mL and the “KC50 (fiducial limits)” value (Aedes aegypti (mosquito); 20 Minutes) was 6.0 µg/mL. The “KC50 (fiducial limits)” value (Aedes aegypti (mosquito); 30 Minutes) was >243 µg/mL, the “LT50 (fiducial limits)” value [3] was 1.94 h and the “LT50 (fiducial limits) against A. japonicus” value [4] was 3.32 (2.05-7220) hour. The “Vp (Pa)/T (° C.)” value [7] was 3.99/25 Pa, the “LC50 (fiducial limits)” value [8] was >19.2 µg/mL and the “LC90 (fiducial limits)” value [8] was >19.2 µg/mL. For the same molecule, the “activity against flower Thrips” value [1] was “exhibit insecticidal activity”, the “LT50 (fiducial limits)” value [5] was 2.49 h and the “KC50 (fiducial limits)” value ([6]; 10 Minutes) was >7600 µg/mL. The “KC50 (fiducial limits)” value ([6]; 20 Minutes) was >243 µg/mL, the “KC50 (fiducial limits)” value ([6]; 30 Minutes) was >243 µg/mL and the “time within which the insects responded” value [6] was ≤ 10 min. The “LT50 (fiducial limits)” value (M. domestica (housefly)) was 2.30 h, the “LC50 (fiducial limits)” value [9, 15] was 84.5 µg/mL (≈ 563 µM) and the “LC90 (fiducial limits)” value [9, 15] was 118 µg/mL (≈ 786 µM). The “LC50 (fiducial limits)” value [10, 16] was 0.77 µg/mL (≈ 5.13 µM), the “LC90 (fiducial limits)” value [10, 16] was 3.92 µg/mL (≈ 26.1 µM) and the “LC50 (fiducial limits)” value [11, 17] was >243 µg/mL. The “LC90 (fiducial limits)” value [11, 17] was >243 µg/mL, the “LC50 (fiducial limits)” value ([12]; melon fly) was >243 µg/mL and the “LC90 (fiducial limits)” value ([12]; melon fly) was >243 µg/mL. The “LC50 (fiducial limits)” value ([13]; spider mites, exposed one hour) was 37.5 µg/mL (≈ 250 µM), the “LC90 (fiducial limits)” value ([13]; spider mites, exposed one hour) was 510 µg/mL (≈ 3390 µM) and the “LC50 (fiducial limits) against T. chilonis” value [14] was 826 µg/mL (≈ 5500 µM). For the same molecule, the “LC90 (fiducial limits) against T. chilonis” value [14] was 7.08 µg/mL (≈ 47.1 µM).
In the case of `CC12CCC(CC1=O)C2(C)C` (racemic) [(±)-camphor, reference compound], the “LC50, fumigation toxicity” value (adult T. palmi) is given as 9.7 µg/mL (≈ 63.7 µM).
With `ClC(Cl)Cl` [Chloroform] the “LT50 (fiducial limits)” value [2] was >48^a ^ hour, the “LT50 (fiducial limits)” value [3] was >48^a ^ hour and the “LT50 (fiducial limits) against A. japonicus” value [4] was >48^a hour. For the same molecule, the mortality ([1]; in vivo) was “No mortality”, the “LT50 (fiducial limits)” value [5] was >48^a ^ hour and the “LT50 (fiducial limits)” value (M. domestica (housefly)) was >48^a ^ hour.
